Test results reported in PubChem BioAssay (NCI).
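Exposure lasted 48 hours, with cells grown in 96-well plates and compounds tested at five concentrations. TGI: concentration producing complete growth inhibition.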

Key:
Test in all cases: NCI-60 cell line screen, 48 h
786-0 renal = tested on: 786-0 renal
A498 renal = tested on: A498 renal
A549 NSCLC = tested on: A549 NSCLC
ACHN renal = tested on: ACHN renal
BT-549 breast = tested on: BT-549 breast
CAKI-1 renal = tested on: CAKI-1 renal
CCRF-CEM leukemia = tested on: CCRF-CEM leukemia
COLO 205 colon = tested on: COLO 205 colon
EKVX NSCLC = tested on: EKVX NSCLC
HCC-2998 colon = tested on: HCC-2998 colon
HCT-116 colon = tested on: HCT-116 colon
HCT-15 colon = tested on: HCT-15 colon
HL-60(TB) leukemia = tested on: HL-60(TB) leukemia
HOP-62 NSCLC = tested on: HOP-62 NSCLC
HOP-92 NSCLC = tested on: HOP-92 NSCLC
HT29 colon = tested on: HT29 colon
IGROV1 ovarian = tested on: IGROV1 ovarian
K-562 leukemia = tested on: K-562 leukemia
KM12 colon = tested on: KM12 colon
LOX IMVI melanoma = tested on: LOX IMVI melanoma
M14 melanoma = tested on: M14 melanoma
MALME-3M melanoma = tested on: MALME-3M melanoma
MCF7 breast = tested on: MCF7 breast
MDA-MB-231 breast = tested on: MDA-MB-231 breast
MDA-MB-435 = tested on: MDA-MB-435
MOLT-4 leukemia = tested on: MOLT-4 leukemia
NCI-H226 lung = tested on: NCI-H226 lung
NCI-H460 lung = tested on: NCI-H460 lung
NCI-H522 lung = tested on: NCI-H522 lung
NCI/ADR-RES ovarian = tested on: NCI/ADR-RES ovarian
OVCAR-4 ovarian = tested on: OVCAR-4 ovarian
OVCAR-5 ovarian = tested on: OVCAR-5 ovarian
OVCAR-8 ovarian = tested on: OVCAR-8 ovarian
PC-3 prostate = tested on: PC-3 prostate
RXF 393 renal = tested on: RXF 393 renal
SF-268 CNS = tested on: SF-268 CNS
SF-295 CNS = tested on: SF-295 CNS
SF-539 CNS = tested on: SF-539 CNS
SK-MEL-2 melanoma = tested on: SK-MEL-2 melanoma
SK-MEL-28 melanoma = tested on: SK-MEL-28 melanoma
SK-MEL-5 melanoma = tested on: SK-MEL-5 melanoma
SK-OV-3 ovarian = tested on: SK-OV-3 ovarian
SN12C renal = tested on: SN12C renal
SNB-19 CNS = tested on: SNB-19 CNS
SNB-75 CNS = tested on: SNB-75 CNS
SW-620 colon = tested on: SW-620 colon
TK-10 renal = tested on: TK-10 renal
U251 CNS = tested on: U251 CNS
UACC-257 melanoma = tested on: UACC-257 melanoma
UACC-62 melanoma = tested on: UACC-62 melanoma

Measured: TGI

Cc1ccc(-c2c(C#N)c(O)n(NS(=O)(=O)c3ccccc3)c(=O)c2C#N)cc1
> 100 µM: all assays above
